Experiment [1] deals with A. baumannii AB5075. Description: Lethal A. baumannii lung infection (mouse pneumonia) model, survival. Format: in vivo, Acinetobacter baumannii. The settings on record: mouse pneumonia model vs. AB5075; 5 mg/kg, twice intravenously, t=+1 h and +4 h; n=5.
Experiment [2] deals with A. baumannii AB5075. In kind it is cell-based. As to the method:
(§1) Overnight stationary-phase cultures were centrifuged at 3,500×g for 10 min at room temperature and resuspended in 1×PBS to an optical density at 600 nm (OD600) of 0.4 (1×10^8 colony forming units [CFU]/ml) in RPMI with L-glutamine and phenol red (Life Technologies). Bacteria were diluted 1:25 in RPMI ([…]) and 10 ul added to wells of a non-binding 96-well plate (Corning 3641) containing 80 ul of 50% hirudin anti-coagulated blood (complement active) in RPMI. […] MBC was defined as the minimum conjugate concentration required for bacterial clearance (Table 8A and Table 8B). An untreated growth control (40% blood, 0 ug/ml conjugate) was included in all assays as a growth comparator.
(§2) MBC was defined as the minimum compound concentration required for complete bacterial clearance (Table 18).
(§3) In most cases, 2-4 fold improvements in antibacterial activity for the conjugates are observed in the presence of complement active human blood.

Experiment [3] has as its system E. coli ATCC 25922. Format: cell-based. On the procedure: as §1, §2, §3
In experiment [4] the test system is P. aeruginosa PAO1. In kind it is cell-based. On the procedure:
as §1, §2, §3

Experiment [5] deals with Ab AB58705 (COL^R) IpxD, mut. (no LPS). In kind it is cell-based, Acinetobacter baumannii. Conditions: media CA-MHB.
Experiment [6] relates to E. coli 25922. The settings on record: (A) Bacteremia (E. coli); 5 mg/kg IV, single, +1 hr; survival after three days; N=3. As to the method: In vivo screening of selected compounds was accomplished in an E. coli bacteremia model (N=3). Efficacy was assessed in an animal model of infection using CD-1 mice by evaluating bacteremia in immune competent mice challenged with 2× the LD95 of E. coli 25922 (dosed qd, intraperitoneally (IP) at T+1 hour, survival endpoint).
Colistin (COL) and Int-17 were dosed at 0.3 mg/kg and Int-41 was dosed at 3.0 mg/kg. Percent survival was determined 72 hours after bacterial challenge. Compounds with MICs against E. coli 25922 of less than 4 μg/ml were evaluated in the bacteremia model.
Int-115 and Int-118 were evaluated for potency in a lethal model of bacteremia. […] Test articles were dissolved in 1× PBS and injected IV at a dose volume of 10 ml/kg one hour following bacterial challenge. Animals were monitored twice daily and mortality scored over three days.
CD-1 mice were used for bacteremia, C57BL/6J mice for endotoxemia. The endpoint was survival after three days for both models.

The test system of experiment [7] is Ec COL^R LPS: colistin-resistant (MCR-1) strain (AR0349). Description: Lethal mouse endotoxemia model (LD95 purified LPS IP). In kind it is in vivo, C57BL/6J mice. The settings on record: (D) Endotoxemia (Ec COL^R LPS); 5 mg/kg IV, single, -1 hr; survival after three days. On the procedure: (§4) Studies (B)-(D) shown in Table 22 summarizes the efficacy of compounds in lethal models of endotoxemia. In these models 6 week old C57I/6J immune competent mice (Jackson Laboratory) were challenged IP with purified lipopolysaccharide (LPS) in PBS at an LD95. For all studies, LPS was obtained from Sigma (catalog numbers in the table footnote) or were purified using a kit obtained from iNtRON Biotechnology Inc. (cat #17141). One hour prior to LPS challenge mice were dosed with test articles as indicated (Table 22). The results of these studies indicate that compounds are able to neutralize the lethal effects of LPS in a severe endotoxemia/sepsis model.
End point was survival after 3 days. Ec: E. coli 0111:B34, Sigma cat #L4130; Ab: Acinetobacter baumannii 5075; Kp: Klebsiella pneumonia 10, Sigma cat #L4268; Ng: Neisseria gonorrhoeae 19424; Ec 026:B86, Sigma cat #L2762; Pm: Proteus mirabilis, Sigma cat #SMB00704; Sm: Serratia marcescens, Sigma cat #L6016; Pa: Pseudomonas aeruginosa 10. […] Purified LPS used for all endotoxemia studies and if not denoted by a Sigma catalog number the LPS was purified in-house using an iNtRON #17141 purification kit. *Delayed death, at the time Fc only animals reached 100% mortality all Conjugate 41 mice were still alive.

In experiment [8] the test system is Ec LPS: E. coli 0111:B4. The experiment is described as above. In kind it is in vivo, C57BL/6J mice. The settings on record: (B) Endotoxemia (Ec LPS); 1 mg/kg IV, single, -1 hr; survival after three days. As to the method:
as §4
End point was survival after 3 days. Ec: E. coli 0111:[…] (Sigma cat #L4130); Ab: Acinetobacter baumannii 5075 (iNtRON cat #17141); Ng: Neisseria gonorrhoeae 19424 (iNtRON cat #17141); COL: colistin.
End point was survival after 3 days. Ec: E. coli 0111:B34, Sigma cat #L4130; Ab: Acinetobacter baumannii 5075; Kp: Klebsiella pneumonia 10, Sigma cat #L4268; Ng: Neisseria gonorrhoeae 19424; Ec 026:B86, Sigma cat #L2762; Pm: Proteus mirabilis, Sigma cat #SMB00704; Sm: Serratia marcescens, Sigma cat #L6016; Pa: Pseudomonas aeruginosa 10. […]

In brackets after ≈: the same amount, converted by molar mass. *1 amine or outer side, *2 acyl side, *3 side chain or, on linkers, in order; H or OH if unused. Where a SMILES comes first, the peptide text is derived from it. Bridges are numbered along the chain shown (N, C = ends). Roman numbers before positions name the chains, in order. [ ]: non-standard residue; d: D form. The star is where a group is joined. X5 = C#CCOCCOCCOCCOCCN1C[C@@H](C(=O)[*:1])[C@H](C(=O)[*:2])C1; X2 = O=C([C@@H](N[*:1])[C@H](O)CCC(F)(F)F)[*:2]; Propargyl(OCH2CH2)4CO = C#CCOCCOCCOCCOCCC(=O)*; X3 = CCCCC[C@@H](O)[C@H](N[*:1])C(=O)[*:2]; azaDab = NCCN(N[*:1])C(=O)[*:2]; Aoc(2) = CCCCCC[C@H](N)C(=O)O; hLeu = CC(C)CC[C@H](N)C(=O)O; Nle = CCCC[C@H](N)C(=O)O; Dab = NCC[C@H](N)C(=O)O; azaGly = NNC(=O)O Bounds are passed on as bounds.

With `C#CCOCCOCCOCCOCCC(=O)N[C@@H](CCC(C)C)C(=O)N[C@@H](CCN)C(=O)N[C@H](C(=O)NNC(=O)N[C@H]1CCNC(=O)[C@H]([C@@H](C)O)NC(=O)[C@H](CCN)NC(=O)[C@H](CCN)NC(=O)[C@H](CC(C)C)NC(=O)[C@@H](Cc2ccccc2)NC(=O)[C@H](CCN)NC1=O)[C@H](O)CCCCC` [Int-116] ({Propargyl(OCH2CH2)4CO}-[hLeu][Dab][X3][azaGly][Dab][Dab][dF]L[Dab][Dab]T; lactam 5-C), the “protection (survival over 5 days), FIG. 118” value in experiment [1] came to 100%. For the same compound, in experiment [2], the “MBC in blood AB 5075” value came out at 0.05 µg/mL (≈ 0.0346 µM). For the same compound, the “MBC in blood EC 25922” value in experiment [3] amounted to 0.2 µg/mL (≈ 0.138 µM). The “MBC in blood PA 01” value in experiment [4] was over 0.2 µg/mL. For the same compound, the MIC in experiment [5] was 64 µg/mL (≈ 44.2 µM).

`C#CCOCCOCCOCCOCCC(=O)N[C@@H](CCCCCC)C(=O)N[C@@H](CCN)C(=O)N[C@H](C(=O)N[C@@H](CCN)C(=O)N[C@H]1CCNC(=O)[C@H]([C@@H](C)O)NC(=O)[C@H](CCN)NC(=O)[C@H](CCN)NC(=O)[C@H](CC(C)C)NC(=O)[C@@H](Cc2ccccc2)NC(=O)[C@H](CCN)NC1=O)[C@H](O)CCC(F)(F)F` [Int-118] ({Propargyl(OCH2CH2)4CO}-[Aoc(2)][Dab][X2][Dab][Dab][Dab][dF]L[Dab][Dab]T; lactam 5-C): the “protection (survival over 5 days), FIG. 118” value in experiment [1] is 40%. For the same compound, the “MBC in blood AB 5075” value in experiment [2] turned out to be 0.025 µg/mL (≈ 0.0164 µM). In experiment [3], the “MBC in blood EC 25922” value was found to be 0.05 µg/mL (≈ 0.0327 µM). For the same compound, the “MBC in blood PA 01” value in experiment [4] was over 0.2 µg/mL. Further, the “% survival” value in experiment [6] is on record as 66%.

For the compound `C#CCOCCOCCOCCOCCN1C[C@@H](C(=O)N[C@@H](CCCC)C(=O)N[C@@H](CCN)C(=O)N[C@H](C(=O)NNC(=O)N[C@H]2CCNC(=O)[C@H]([C@@H](C)O)NC(=O)[C@H](CCN)NC(=O)[C@H](CCN)NC(=O)[C@H](CC(C)C)NC(=O)[C@@H](Cc3ccccc3)NC(=O)[C@H](CCN)NC2=O)[C@@H](C)O)[C@H](C(=O)N[C@@H](CCCC)C(=O)N[C@@H](CCN)C(=O)N[C@H](C(=O)NNC(=O)N[C@H]2CCNC(=O)[C@H]([C@@H](C)O)NC(=O)[C@H](CCN)NC(=O)[C@H](CCN)NC(=O)[C@H](CC(C)C)NC(=O)[C@@H](Cc3ccccc3)NC(=O)[C@H](CCN)NC2=O)[C@@H](C)O)C1` [Int-120] (I: [Nle][Dab]T[azaGly][Dab][Dab][dF]L[Dab][Dab]T / II: [Nle][Dab]T[azaGly][Dab][Dab][dF]L[Dab][Dab]T; lactam I:5-I:C, II:5-II:C; linker I:N-II:N via X5), the MIC in experiment [5] was determined as 4 µg/mL (≈ 1.53 µM). Moreover, the “% survival” value in experiment [7] amounted to 100%.

Turning to `C#CCOCCOCCOCCOCCC(=O)N[C@@H](CCC(C)C)C(=O)N[C@@H](CCN)C(=O)N[C@H](C(=O)NN(CCN)C(=O)N[C@H]1CCNC(=O)[C@H]([C@@H](C)O)NC(=O)[C@H](CCN)NC(=O)[C@H](CCN)NC(=O)[C@H](CC(C)C)NC(=O)[C@@H](Cc2ccccc2)NC(=O)[C@H](CCN)NC1=O)[C@@H](C)O` [Int-127] ({Propargyl(OCH2CH2)4CO}-[hLeu][Dab]T[azaDab][Dab][Dab][dF]L[Dab][Dab]T; lactam 5-C), the “MBC in blood AB 5075” value in experiment [2] turned out to be 0.1 µg/mL (≈ 0.0697 µM). Moreover, the “MBC in blood EC 25922” value in experiment [3] came out at 0.025 µg/mL (≈ 0.0174 µM). The “MBC in blood PA 01” value in experiment [4] was found to be 0.1 µg/mL (≈ 0.0697 µM). The same compound had a minimal inhibitory concentration (MIC) in experiment [5] of 64 µg/mL (≈ 44.6 µM).

For `C#CCOCCOCCOCCOCCC(=O)N[C@@H](CCCCCC)C(=O)N[C@@H](CCN)C(=O)N[C@H](C(=O)NN(CCN)C(=O)N[C@H]1CCNC(=O)[C@H]([C@@H](C)O)NC(=O)[C@H](CCN)NC(=O)[C@H](CCN)NC(=O)[C@H](CC(C)C)NC(=O)[C@@H](Cc2ccccc2)NC(=O)[C@H](CCN)NC1=O)[C@@H](C)O` [Int-129] ({Propargyl(OCH2CH2)4CO}-[Aoc(2)][Dab]T[azaDab][Dab][Dab][dF]L[Dab][Dab]T; lactam 5-C), the “protection (survival over 5 days), FIG. 119” value in experiment [1] is reported as 60%. The “% survival” value in experiment [8] is given as 100%.

As usually defined, the MIC is the smallest concentration in the dilution series that meets the test's criterion for growth inhibition. Higher therefore signals a need for much substance.

Values taken from patent US20230165970A1, “COMPOSITIONS AND METHODS FOR THE TREATMENT OF BACTERIAL INFECTIONS” (priority 2017, published 2023).
